# Data published in US5707977A, “Watersoluble azole antifungals” (Janssen Pharmaceutica, N.V., priority 1996, dated 1998).
# Where a name gives a salt, the structure may show the parent alone.
# Key:
# [1] = tested on: Candida albicans; assay: Mouse triple mycosis model: vaginal candidosis; type: in vivo; design: unit not given here; settings: treatment for 5 days, mice
# Description: (§1) The test compounds were evaluated for their activity in a mouse model of fungal infection in which three mycoses--vaginal candidosis, cutaneous trichophytosis and disseminated aspergillosis--were established simultaneously. The mice, in groups of 10, were pretreated with subcutaneous injections of oestradiol valerate (500 μg) then inoculated on day 0 with the following: 100 000 colony forming units (CFU)/g of Aspergillus fumigatus B 19119 intravenously, a suspension containing 10^8 Candida albicans cells intravaginally and a aqueous suspension of Trichophyton quinckeanum on lightly scarified dorsal skin. Treatment with the test compounds (orally or intravenously) was begun on the day of infection and continued for 5 days.
# [2] = Solubility in water and in 0.1N HCl (1 hour shaking at room temperature, UV-spectroscopy); type: physicochemical
# Description: An excess of compound was added to 5 ml of solvent (the type of solvent is specified in the table). The mixture was shaken during 1 hour at room temperature. The precipitate was filtered off. The concentration of the compound was measured via UV-spectroscopy and is shown in the column "Solubility".
# [3] = tested on: Candida albicans; assay: Mouse disseminated Candida model; type: in vivo; settings: IV route; treatment repeated daily for 9 days; mice
# Description: Mice in groups of 10 were infected intravenously with 8×10^5 CFU of Candida albicans. Treatment was begun on the day of infection and repeated daily for 9 days. Candida albicans CFU/g kidney were measured for all mice that died spontaneously or were killed on day 10.
# The table indicates the lowest concentrations of the shown compounds that achieved a reduction in mean Candida counts of 1 log (i.e. a 10-fold reduction) or more, either in the triple mycosis model or the disseminated Candida infection; also the lowest concentrations that reduced mean skin scores below 1.0 in the cutaneous dermatophytosis component of this model (NT=nor tested, IV=intravenous).
# [4] = tested on: Trichophyton quinckeanum; assay: Mouse triple mycosis model: cutaneous dermatophytosis (trichophytosis); type: in vivo; design: unit not given here; settings: treatment for 5 days, mice
# Description: as §1
# [5] = water, solvent: water, measured pH 6.65 to 7.01
# [6] = 0.1n hcl, solvent: 0.1N HCl, measured pH 1.25 to 1.75
structure (smiles),measurement,setting,value
"CN1CCN(CC(=O)OC(Cn2ncn(-c3ccc(N4CCN(c5ccc(OC[C@H]6CO[C@](Cn7cncn7)(c7ccc(F)cc7F)O6)cc5)CC4)cc3)c2=O)C(C)(C)C)CC1 (mixture of isomers) [Compound 34, (±)-cis-1-[[4-[4-[4-[4-[[2-(2,4-difluorophenyl)-2-(1H-1,2,4-triazol-1-ylmethyl)-1,3-dioxolan-4-yl]methoxy]phenyl]-1-piperazinyl]phenyl]-4,5-dihydro-5-oxo-1H-1,2,4-triazol-1-yl]methyl]-2,2-dimethylpropyl 4-methyl-1-piperazineacetate monohydrochloride]","lowest concentration, Vaginal Candida CFU reduced by 1 log or more",[1]; IV route,2.5
same,"lowest concentration, Vaginal Candida CFU reduced by 1 log or more",[1]; oral route,2.5
same,Solubility,"[2]; solvent: 0.1N HCl, measured pH 1.25 to 1.75, monohydrochloride, 60 min",> 6000 µg/mL
same,"lowest concentration, Kidney Candida CFU reduced by 1 log or more",[3],5
same,"lowest concentration, Dermatophyte skin score reduced to ≤1",[4]; IV route,2.5
same,"lowest concentration, Dermatophyte skin score reduced to ≤1",[4]; oral route,2.5
"CC(C)(C)C(Cn1ncn(-c2ccc(N3CCN(c4ccc(OC[C@H]5CO[C@](Cn6cncn6)(c6ccc(F)cc6F)O5)cc4)CC3)cc2)c1=O)OP(=O)(O)O (mixture of isomers) [Compound 3, (±)-ammonium cis-1-[[4-[4-[4-[4-[[2-(2,4-difluorophenyl)-2-(1H-1,2,4-triazol-1-ylmethyl)-1,3-dioxolan-4-yl]methoxy]phenyl]-1-piperazinyl]phenyl]-4,5-dihydro-5-oxo-1H-1,2,4-triazol-1-yl]methyl]-2,2-dimethylpropyl phosphate]","lowest concentration, Vaginal Candida CFU reduced by 1 log or more",[1]; IV route,2.5
same,"lowest concentration, Vaginal Candida CFU reduced by 1 log or more",[1]; oral route,2.5
same,solubility at 1 h,[2]; [5],31900 µg/mL
same,"lowest concentration, Kidney Candida CFU reduced by 1 log or more",[3],10
same,"lowest concentration, Dermatophyte skin score reduced to ≤1",[4]; IV route,2.5
same,"lowest concentration, Dermatophyte skin score reduced to ≤1",[4]; oral route,2.5
CN1CCN(CCC(=O)OC(Cn2ncn(-c3ccc(N4CCN(c5ccc(OC[C@H]6CO[C@](Cn7cncn7)(c7ccc(F)cc7F)O6)cc5)CC4)cc3)c2=O)C(C)(C)C)CC1 (stereo partly drawn) [Compound 33],solubility at 1 h,[2]; [6],> 6000 µg/mL
"CC(C)(C)C(Cn1ncn(-c2ccc(N3CCN(c4ccc(OC[C@H]5CO[C@](Cn6cncn6)(c6ccc(F)cc6F)O5)cc4)CC3)cc2)c1=O)OC(=O)CCN1CCCC1 (mixture of isomers) [Compound 37, (±)-cis-1-[[4-[4-[4-[4-[[2-(2,4-difluorophenyl)-2-(1H-1,2,4-triazol-1-ylmethyl)-1,3-dioxolan-4-yl]methoxy]phenyl]-1-piperazinyl]phenyl]-4,5-dihydro-5-oxo-1H-1,2,4-triazol-1-yl]methyl]-2,2-dimethylpropyl 1-pyrrolidinepropanoate . monohydrochloride . monohydrate]",solubility at 1 h,[2]; [6],> 6000 µg/mL
CC(C)(C)C(Cn1ncn(-c2ccc(N3CCN(c4ccc(OC[C@H]5CO[C@](Cn6cncn6)(c6ccc(F)cc6F)O5)cc4)CC3)cc2)c1=O)OC(=O)CN1CCN(CCO)CC1 (stereo partly drawn) [Compound 31],solubility at 1 h,[2]; [6],> 6000 µg/mL
"CC(C)(C)C(Cn1ncn(-c2ccc(N3CCN(c4ccc(OC[C@H]5CO[C@](Cn6cncn6)(c6ccc(F)cc6)O5)cc4)CC3)cc2)c1=O)OP(=O)(O)O (mixture of isomers) [Compound 9, (±)-ammonium cis-1-[[4-[4-[4-[4-[[2-(4-fluorophenyl)-2-(1H-1,2,4-triazol-1-ylmethyl)-1,3-dioxolan-4-yl]methoxy]phenyl]-1-piperazinyl]phenyl]-4,5-dihydro-5-oxo-1H-1,2,4-triazol-1-yl]methyl]-2,2-dimethylpropyl phosphate]",solubility at 1 h,[2]; [5],2650 µg/mL
CC(C)(C)C(Cn1ncn(-c2ccc(N3CCN(c4ccc(OC[C@H]5CO[C@](Cn6cncn6)(c6ccc(F)cc6F)O5)cc4)CC3)cc2)c1=O)OC(=O)CN (stereo partly drawn) [Compound 38],solubility at 1 h,[2]; [6],> 6000 µg/mL
"CC(C)(C)C(Cn1ncn(-c2ccc(N3CCN(c4ccc(OC[C@H]5CO[C@](Cn6cncn6)(c6ccc(F)cc6F)O5)cc4)CC3)cc2)c1=O)OC(=O)CCN (mixture of isomers) [Compound 36, (±)-cis-1-[[4-[4-[4-[4-[[2-(2,4-difluorophenyl)-2-(1H-1,2,4-triazol-1-ylmethyl)-1,3-dioxolan-4-yl]methoxy]phenyl]-1-piperazinyl]phenyl]-4,5-dihydro-5-oxo-1H-1,2,4-triazol-1-yl]methyl]-2,2-dimethylpropyl β-alanine monohydrochloride]",solubility at 1 h,[2]; [6],> 6000 µg/mL
"CC(C)(C)C(Cn1ncn(-c2ccc(N3CCN(c4ccc(OC[C@H]5CO[C@](Cn6cncn6)(c6ccc(F)cc6F)O5)cc4)CC3)cc2)c1=O)OP(=O)(O)O (mixture of isomers) [Compound 17, (±)-cis-4-[4-[4-[4-[[2-(2,4-difluorophenyl)-2-(1H-1,2,4-triazol-1-ylmethyl)-1,3-dioxolan-4-yl]methoxy]phenyl]-1-piperazinyl]phenyl]-2-[3,3-dimethyl-2-(phosphonooxy)butyl]-2,4-dihydro-3H-1,2,4-triazol-3-one hemihydrate]","lowest concentration, Vaginal Candida CFU reduced by 1 log or more","[1]; IV route, hemihydrate",< 2.5
same,"lowest concentration, Dermatophyte skin score reduced to ≤1","[4]; IV route, hemihydrate",< 2.5
"CC(C)(C)C(Cn1ncn(-c2ccc(N3CCN(c4ccc(OC[C@H]5CO[C@](Cn6cncn6)(c6ccc(Cl)cc6)O5)cc4)CC3)cc2)c1=O)OP(=O)(O)O (mixture of isomers) [Compound 7, (±)-ammonium cis-1-[[4-[4-[4-[4-[[2-(4-chlorophenyl)-2-(1H-1,2,4-triazol-1-yl-methyl)-1,3-dioxolan-4-yl]methoxy]phenyl]-1-piperazinyl]phenyl]-4,5-dihydro-5-oxo-1H-1,2,4-triazol-1-yl]methyl]-2,2-dimethylpropyl phosphate(ester) monohydrate]",solubility at 1 h,[2]; [5],350 µg/mL
CN1CCN(CC(=O)OC(Cn2ncn(-c3ccc(N4CCN(c5ccc(OC[C@H]6CO[C@](Cn7cncn7)(c7ccc(F)cc7F)O6)cc5)CC4)cc3)c2=O)C(C)(C)C)CC1 (stereo partly drawn) [Compound 29],solubility at 1 h,[2]; [6],4890 µg/mL
CCN(CC)CC(=O)OC(Cn1ncn(-c2ccc(N3CCN(c4ccc(OC[C@H]5CO[C@](Cn6cncn6)(c6ccc(F)cc6F)O5)cc4)CC3)cc2)c1=O)C(C)(C)C (stereo partly drawn) [Compound 30],solubility at 1 h,[2]; [6],5220 µg/mL
"CC(C)(C)C(Cn1ncn(-c2ccc(N3CCN(c4ccc(OC[C@H]5CO[C@](Cn6cncn6)(c6ccc(F)cc6F)O5)cc4)CC3)cc2)c1=O)OP(=O)(O)Oc1ccccc1 (mixture of isomers) [Compound 2, (±)-cis-1-[[4-[4-[4-[4-[[2-(2,4-difluorophenyl)-2-(1H-1,2,4-triazol-1-ylmethyl)-1,3-dioxolan-4-yl]methoxy]phenyl]-1-piperazinyl]phenyl]-4,5-dihydro-5-oxo-1H-1,2,4-triazol-1-yl]methyl]-2,2-dimethylpropyl phenyl sodium phosphate]",solubility at 1 h,"[2]; solvent: water, measured pH 6.65 to 7.01",> 6000 µg/mL
